Reference: ChEMBL document CHEMBL4330071 (Eur J Med Chem, 2019)

Columns and labels:
[1] = biological target: Tyrosine-protein kinase Lck (Homo sapiens, UniProt P06239); assay: Inhibition of human LCK assessed as residual activity at 10 uM using poly[Glu:Tyr] (4:1) as substrate preincubated for 20 mins followed by [gamma-33P]-ATP addition and measured after 120 mins by Hotspot assay relative to control
[2] = biological target: Tyrosine-protein kinase BTK (Homo sapiens, UniProt Q06187); assay: Inhibition of human BTK using KVEKIGEGTYGVVYK as substrate preincubated for 20 mins followed by [gamma-33P]-ATP addition and measured after 120 mins by Hotspot assay
Tyrosine-protein kinase BTK, sequence (Q06187 whole entry): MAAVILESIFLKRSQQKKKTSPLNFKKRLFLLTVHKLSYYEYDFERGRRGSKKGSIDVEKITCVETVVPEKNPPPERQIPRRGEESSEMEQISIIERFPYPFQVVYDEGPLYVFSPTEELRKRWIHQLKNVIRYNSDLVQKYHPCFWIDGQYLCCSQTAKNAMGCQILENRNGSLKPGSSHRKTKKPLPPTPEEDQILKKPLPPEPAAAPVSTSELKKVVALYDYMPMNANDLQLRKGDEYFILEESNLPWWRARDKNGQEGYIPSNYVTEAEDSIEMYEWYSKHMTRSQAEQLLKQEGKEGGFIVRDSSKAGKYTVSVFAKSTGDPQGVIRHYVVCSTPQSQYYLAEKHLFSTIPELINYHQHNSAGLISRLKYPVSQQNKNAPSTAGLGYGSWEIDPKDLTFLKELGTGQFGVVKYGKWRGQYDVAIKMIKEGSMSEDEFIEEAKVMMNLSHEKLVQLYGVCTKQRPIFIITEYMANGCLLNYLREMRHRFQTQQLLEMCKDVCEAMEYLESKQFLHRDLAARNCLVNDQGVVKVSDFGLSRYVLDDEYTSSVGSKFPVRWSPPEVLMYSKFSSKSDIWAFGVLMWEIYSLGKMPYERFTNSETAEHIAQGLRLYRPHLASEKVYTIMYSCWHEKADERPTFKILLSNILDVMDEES

[3] = tested on: MV4-11; assay: Induction of apoptosis in human MV4-11 cells assessed as late apoptotic cells at 1 uM after 24 hrs by Annexin V-FITC/propidium iodide staining based flow cytometric analysis (reference value: 1.42%); assay type: functional
[4] = biological target: Tyrosine-protein kinase ABL1 (Homo sapiens, UniProt P00519, F317I); assay: Binding affinity to human phosphorylated ABL1 F317I mutant (S229 to K512 residues) expressed in mammalian expression system after 60 mins by Kinomescan method
[5] = tested on: MV4-11; assay: Induction of apoptosis in human MV4-11 cells assessed as viable cells at 0.5 uM after 24 hrs by Annexin V-FITC/propidium iodide staining based flow cytometric analysis (reference value: 95.19%); assay type: functional; conditions: MV4-11, 24 h, read-out: Activity
[6] = tested on: MV4-11; assay: Induction of apoptosis in human MV4-11 cells assessed as late apoptotic cells at 0.05 uM after 24 hrs by Annexin V-FITC/propidium iodide staining based flow cytometric analysis (reference value: 1.42%); assay type: functional
[7] = tested on: MV4-11; assay: Cell cycle arrest in human MV4-11 cells assessed as accumulation at G2/M phase after 24 hrs by ribonuclease/propidium iodide staining based flow cytometric analysis; assay type: functional
[8] = tested on: MCF7; assay: Growth inhibition of human MCF7 cells at 10 uM after 72 hrs by CellTiter-Glo assay relative to control; assay type: functional; conditions: MCF7, 72 h, read-out: GI
[9] = biological target: Mitogen-activated protein kinase 14 (Homo sapiens) (UniProt Q16539); assay: Inhibition of human p38alpha assessed as residual activity at 10 uM using MBP as substrate preincubated for 20 mins followed by [gamma-33P]-ATP addition and measured after 120 mins by Hotspot assay relative to control
Mitogen-activated protein kinase 14 (Homo sapiens), sequence (Q16539 whole entry): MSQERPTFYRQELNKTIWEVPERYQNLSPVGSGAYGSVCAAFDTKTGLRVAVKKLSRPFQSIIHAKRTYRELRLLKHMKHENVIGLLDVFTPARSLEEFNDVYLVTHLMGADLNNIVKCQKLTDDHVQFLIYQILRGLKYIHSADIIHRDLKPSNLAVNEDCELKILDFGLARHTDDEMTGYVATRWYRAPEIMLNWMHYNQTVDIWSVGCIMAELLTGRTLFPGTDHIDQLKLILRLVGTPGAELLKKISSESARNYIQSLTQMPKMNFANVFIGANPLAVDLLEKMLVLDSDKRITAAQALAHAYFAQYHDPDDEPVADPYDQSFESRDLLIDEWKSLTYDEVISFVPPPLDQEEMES

[10] = biological target: ALK tyrosine kinase receptor (Homo sapiens, UniProt Q9UM73); assay: Inhibition of human ALK assessed as residual activity at 10 uM using poly[Glu:Tyr] (4:1) as substrate preincubated for 20 mins followed by [gamma-33P]-ATP addition and measured after 120 mins by Hotspot assay relative to control
[11] = biological target: Inhibitor of nuclear factor kappa-B kinase subunit alpha (Homo sapiens) (UniProt O15111); assay: Inhibition of human IKKalpha assessed as residual activity at 10 uM using KKKKERLLDDRHDSGLDSMKDEE as substrate preincubated for 20 mins followed by [gamma-33P]-ATP addition and measured after 120 mins by Hotspot assay relative to control
Inhibitor of nuclear factor kappa-B kinase subunit alpha (Homo sapiens), sequence (O15111 whole entry): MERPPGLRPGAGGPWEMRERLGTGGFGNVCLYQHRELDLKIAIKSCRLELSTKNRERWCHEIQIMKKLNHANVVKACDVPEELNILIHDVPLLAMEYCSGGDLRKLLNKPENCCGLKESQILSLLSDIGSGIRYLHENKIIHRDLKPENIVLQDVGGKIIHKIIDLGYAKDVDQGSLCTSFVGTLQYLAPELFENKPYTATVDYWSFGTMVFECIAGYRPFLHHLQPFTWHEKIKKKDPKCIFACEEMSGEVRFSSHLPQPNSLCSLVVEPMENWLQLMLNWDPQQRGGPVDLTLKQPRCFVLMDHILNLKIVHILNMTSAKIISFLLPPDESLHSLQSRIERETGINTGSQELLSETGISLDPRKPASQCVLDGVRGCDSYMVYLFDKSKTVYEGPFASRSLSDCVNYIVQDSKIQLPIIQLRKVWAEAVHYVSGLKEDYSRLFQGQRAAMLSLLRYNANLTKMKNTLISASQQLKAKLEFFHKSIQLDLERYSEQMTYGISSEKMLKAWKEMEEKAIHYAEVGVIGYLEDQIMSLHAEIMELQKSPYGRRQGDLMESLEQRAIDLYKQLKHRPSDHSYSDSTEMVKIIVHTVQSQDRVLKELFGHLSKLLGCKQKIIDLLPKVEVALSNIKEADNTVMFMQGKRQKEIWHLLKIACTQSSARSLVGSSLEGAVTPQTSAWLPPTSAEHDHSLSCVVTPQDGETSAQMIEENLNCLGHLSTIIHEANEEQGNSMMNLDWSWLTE

[12] = biological target: CDK1/Cyclin A (Homo sapiens) (UniProt P06493+P20248); assay: Inhibition of human CDK1/Cyclin-A assessed as residual activity at 10 uM using Histone H1 as substrate preincubated for 20 mins followed by [gamma-33P]-ATP addition and measured after 120 mins by Hotspot assay relative to control; assay type: protein-complex assay
CDK1/Cyclin A (Homo sapiens), sequence (P06493 whole entry, looked up): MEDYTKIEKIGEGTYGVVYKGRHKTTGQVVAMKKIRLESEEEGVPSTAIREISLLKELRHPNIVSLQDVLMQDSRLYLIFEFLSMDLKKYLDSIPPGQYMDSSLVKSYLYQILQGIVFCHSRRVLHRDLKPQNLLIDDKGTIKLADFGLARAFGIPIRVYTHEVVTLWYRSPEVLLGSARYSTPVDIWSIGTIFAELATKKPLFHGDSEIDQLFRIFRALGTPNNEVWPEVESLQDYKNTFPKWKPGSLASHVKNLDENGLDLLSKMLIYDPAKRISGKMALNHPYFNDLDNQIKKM
CDK1/Cyclin A (Homo sapiens), sequence (P20248 whole entry, looked up): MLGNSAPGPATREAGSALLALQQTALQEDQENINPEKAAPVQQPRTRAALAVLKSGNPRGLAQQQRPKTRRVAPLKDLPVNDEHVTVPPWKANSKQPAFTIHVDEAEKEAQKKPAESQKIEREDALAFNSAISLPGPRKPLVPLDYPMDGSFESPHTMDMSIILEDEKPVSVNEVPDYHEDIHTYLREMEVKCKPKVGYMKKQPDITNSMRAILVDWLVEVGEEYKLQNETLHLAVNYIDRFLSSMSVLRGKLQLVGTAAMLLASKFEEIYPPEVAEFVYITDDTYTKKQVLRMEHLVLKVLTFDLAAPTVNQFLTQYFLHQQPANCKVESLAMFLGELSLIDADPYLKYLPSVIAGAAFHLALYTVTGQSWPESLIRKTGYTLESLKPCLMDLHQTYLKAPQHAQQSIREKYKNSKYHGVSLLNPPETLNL

[13] = tested on: SMMC-7721; assay: Growth inhibition of human SMMC7721 cells at 10 uM after 72 hrs by CellTiter-Glo assay relative to control; assay type: functional; conditions: SMMC-7721, 72 h, read-out: GI
[14] = biological target: Mitogen-activated protein kinase 3 (Homo sapiens) (UniProt P27361); assay: Inhibition of human ERK1 assessed as residual activity at 10 uM using MBP as substrate preincubated for 20 mins followed by [gamma-33P]-ATP addition and measured after 120 mins by Hotspot assay relative to control
Mitogen-activated protein kinase 3 (Homo sapiens), sequence (P27361 whole entry): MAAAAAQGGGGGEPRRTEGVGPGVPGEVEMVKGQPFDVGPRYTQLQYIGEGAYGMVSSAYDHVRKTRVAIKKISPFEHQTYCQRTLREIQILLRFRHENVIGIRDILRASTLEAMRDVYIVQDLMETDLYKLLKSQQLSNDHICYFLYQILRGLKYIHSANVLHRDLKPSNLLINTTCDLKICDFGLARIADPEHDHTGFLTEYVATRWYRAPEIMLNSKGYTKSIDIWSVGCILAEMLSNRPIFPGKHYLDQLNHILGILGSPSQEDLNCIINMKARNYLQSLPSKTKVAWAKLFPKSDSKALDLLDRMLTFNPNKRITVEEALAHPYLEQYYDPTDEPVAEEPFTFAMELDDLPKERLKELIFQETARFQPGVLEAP

[15] = tested on: PBMC; assay: Cytotoxicity against human PBMC at 1 uM after 72 hrs by MTT assay; assay type: cell-based
[16] = tested on: MV4-11; assay: Induction of apoptosis in human MV4-11 cells assessed as viable cells at 1 uM after 24 hrs by Annexin V-FITC/propidium iodide staining based flow cytometric analysis (reference value: 95.19%); assay type: functional; conditions: MV4-11, 24 h, read-out: Activity
[17] = tested on: MV4-11; assay: Induction of apoptosis in human MV4-11 cells assessed as necrotic cells at 0.1 uM after 24 hrs by Annexin V-FITC/propidium iodide staining based flow cytometric analysis (reference value: 0%); assay type: functional
[18] = biological target: T1, Tyrosine-protein kinase ABL1 (Homo sapiens, UniProt P00519); assay: Inhibition of human ABL1 assessed as residual activity at 10 uM using EAIYAAPFAKKK as substrate preincubated for 20 mins followed by [gamma-33P]-ATP addition and measured after 120 mins by Hotspot assay relative to control
[19] = biological target: Cyclin-dependent kinase 4/cyclin D1 (Homo sapiens, UniProt P11802); assay: Inhibition of human CDK4/cyclin-D1 using RB protein as substrate preincubated for 20 mins followed by [gamma-33P]-ATP addition and measured after 120 mins by Hotspot assay; assay type: protein-complex assay
Cyclin-dependent kinase 4/cyclin D1, sequence (P11802 whole entry): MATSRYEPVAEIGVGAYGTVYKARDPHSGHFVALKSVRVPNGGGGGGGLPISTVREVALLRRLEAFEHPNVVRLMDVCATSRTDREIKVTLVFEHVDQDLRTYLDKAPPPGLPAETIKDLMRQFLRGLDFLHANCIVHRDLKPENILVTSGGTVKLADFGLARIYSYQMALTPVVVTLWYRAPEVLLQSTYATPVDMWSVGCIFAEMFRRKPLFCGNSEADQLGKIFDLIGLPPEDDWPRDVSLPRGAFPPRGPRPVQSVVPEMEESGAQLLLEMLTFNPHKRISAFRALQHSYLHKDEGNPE
Cyclin-dependent kinase 4/cyclin D1, sequence (P24385 whole entry, further chain): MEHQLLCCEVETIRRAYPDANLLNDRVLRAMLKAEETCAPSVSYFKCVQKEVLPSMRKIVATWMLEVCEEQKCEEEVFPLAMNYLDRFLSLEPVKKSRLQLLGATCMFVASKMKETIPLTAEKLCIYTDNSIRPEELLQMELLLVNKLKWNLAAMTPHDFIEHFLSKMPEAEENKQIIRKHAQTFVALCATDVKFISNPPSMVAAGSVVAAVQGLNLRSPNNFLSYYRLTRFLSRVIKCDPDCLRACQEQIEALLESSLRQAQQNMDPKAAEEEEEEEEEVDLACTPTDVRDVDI

[20] = biological target: Serine/threonine-protein kinase pim-1 (Homo sapiens) (UniProt P11309); assay: Inhibition of human PIM1 assessed as residual activity at 10 uM using KKRNRTLTK as substrate preincubated for 20 mins followed by [gamma-33P]-ATP addition and measured after 120 mins by Hotspot assay relative to control
[21] = biological target: Tyrosine-protein kinase ABL1 (Homo sapiens, UniProt P00519, F317L); assay: Binding affinity to human non-phosphorylated ABL1 F317L mutant (S229 to K512 residues) expressed in mammalian expression system after 60 mins by Kinomescan method
[22] = tested on: MV4-11; assay: Induction of apoptosis in human MV4-11 cells assessed as necrotic cells at 0.05 uM after 24 hrs by Annexin V-FITC/propidium iodide staining based flow cytometric analysis (reference value: 0%); assay type: functional
[23] = biological target: Macrophage colony-stimulating factor 1 receptor (Homo sapiens, UniProt P07333); assay: Binding affinity to wild-type human partial length CSF1R (I564 to S939 residues) expressed in bacterial expression system after 60 mins by Kinomescan method
Macrophage colony-stimulating factor 1 receptor, sequence (P07333 whole entry, the tested form may be a part): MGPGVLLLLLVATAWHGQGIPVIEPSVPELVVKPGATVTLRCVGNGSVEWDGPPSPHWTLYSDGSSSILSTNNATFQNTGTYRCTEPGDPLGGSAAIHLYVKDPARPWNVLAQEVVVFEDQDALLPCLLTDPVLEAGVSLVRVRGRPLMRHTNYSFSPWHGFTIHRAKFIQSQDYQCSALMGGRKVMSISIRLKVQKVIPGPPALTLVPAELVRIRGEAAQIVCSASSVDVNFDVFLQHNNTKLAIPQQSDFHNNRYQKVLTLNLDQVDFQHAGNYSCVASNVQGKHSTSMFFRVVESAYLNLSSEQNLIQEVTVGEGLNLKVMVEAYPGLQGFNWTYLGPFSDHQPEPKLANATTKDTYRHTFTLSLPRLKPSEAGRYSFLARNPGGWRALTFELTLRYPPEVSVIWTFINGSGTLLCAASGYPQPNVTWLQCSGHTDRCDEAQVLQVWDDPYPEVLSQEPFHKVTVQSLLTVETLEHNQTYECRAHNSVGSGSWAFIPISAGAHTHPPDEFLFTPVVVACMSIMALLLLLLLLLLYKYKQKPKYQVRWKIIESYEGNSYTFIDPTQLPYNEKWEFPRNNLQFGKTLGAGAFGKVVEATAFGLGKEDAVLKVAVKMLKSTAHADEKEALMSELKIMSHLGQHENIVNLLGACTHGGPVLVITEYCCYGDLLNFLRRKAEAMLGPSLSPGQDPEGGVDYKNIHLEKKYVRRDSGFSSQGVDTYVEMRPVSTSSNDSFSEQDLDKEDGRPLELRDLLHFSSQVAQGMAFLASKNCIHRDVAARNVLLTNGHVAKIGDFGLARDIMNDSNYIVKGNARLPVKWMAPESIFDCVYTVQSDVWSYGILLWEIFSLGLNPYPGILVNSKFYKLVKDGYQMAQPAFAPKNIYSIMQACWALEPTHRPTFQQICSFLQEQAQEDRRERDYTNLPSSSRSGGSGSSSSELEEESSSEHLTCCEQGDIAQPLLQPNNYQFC

[24] = biological target: Tyrosine-protein kinase ABL1 (Homo sapiens, UniProt P00519, T315I); assay: Binding affinity to human non-phosphorylated ABL1 T315I mutant (S229 to K512 residues) expressed in mammalian expression system after 60 mins by Kinomescan method
[25] = biological target: T1, Tyrosine-protein kinase ABL1; assay: Binding affinity to wild-type human non-phosphorylated ABL1 (S229 to K512 residues) expressed in mammalian expression system after 60 mins by Kinomescan method
[26] = biological target: CDK2/Cyclin A2 (Homo sapiens) (UniProt P24941+P20248); assay: Inhibition of human CDK2/cyclin-A assessed as residual activity at 10 uM using histone H1 as substrate preincubated for 20 mins followed by [gamma-33P]-ATP addition and measured after 120 mins by Hotspot assay relative to control; assay type: protein-complex assay
[27] = Intrinsic clearance in rat liver microsomes assessed per mg protein at 1 uM after 5 to 60 mins in presence of NADPH by LC-MS/MS analysis; assay type: ADME, Microsome; conditions: read-out: CLH

Tyrosine-protein kinase Lck, sequence (P06239 2-509 limits assumed): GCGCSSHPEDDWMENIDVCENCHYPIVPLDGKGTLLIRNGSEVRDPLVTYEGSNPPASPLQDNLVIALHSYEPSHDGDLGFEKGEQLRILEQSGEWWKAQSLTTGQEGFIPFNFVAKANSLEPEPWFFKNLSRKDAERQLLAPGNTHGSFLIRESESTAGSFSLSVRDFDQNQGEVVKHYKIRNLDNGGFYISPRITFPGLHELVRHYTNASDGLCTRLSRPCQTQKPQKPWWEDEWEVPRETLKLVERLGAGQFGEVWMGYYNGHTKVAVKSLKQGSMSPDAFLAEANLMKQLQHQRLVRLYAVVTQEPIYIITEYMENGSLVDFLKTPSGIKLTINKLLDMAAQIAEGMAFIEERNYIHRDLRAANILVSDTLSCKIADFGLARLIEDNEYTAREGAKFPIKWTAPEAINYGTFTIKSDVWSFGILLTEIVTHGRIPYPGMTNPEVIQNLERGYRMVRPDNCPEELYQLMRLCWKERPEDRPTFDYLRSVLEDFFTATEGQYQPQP

For `CN1CCC(Nc2ccc(C(=O)Nc3cc(-c4cc(C#N)cs4)n[nH]3)cc2)CC1`, the Activity [1] was 8.39%, the IC50 ([2]; read-out: IC50) was 1640 nM and the IC50 ([2]; read-out: pIC50 (converted)) was 1580 nM. It also gave an Activity [3] of 27.75%, a Kd [4] greater than 10000 nM and a viability at 0.5 µM [5] of 39.8%. The Activity [6] was 14.8%, the Activity [7] was “Dose-dependent effect” and the inhibition of growth at 10 µM [8] was 0.83%. It also gave an Activity [9] of 98.4%, an Activity [10] of 23% and an Activity [11] of 86.5%. For the same compound, the Activity [12] was 74.5%, the inhibition of growth at 10 µM [13] was 1.47% and the Activity [14] was 87.6%. For the same compound, the Activity [15] was “Non-Toxic”, the viability at 1 µM [16] was 34.5% and the Activity [17] was 3%. For the same compound, the Activity [18] was 8.32%, the IC50 ([19]; read-out: IC50) was greater than 10000 nM and the IC50 ([19]; read-out: pIC50 (converted)) was 10000 nM. For the same compound, the Activity [20] was 5.11%, the Kd [21] was 6900 nM and the Activity [22] was 4.51%. It also gave a Kd [23] of 47 nM, a Kd [24] of 580 nM and a Kd [25] of 370 nM. For the same compound, the Activity [26] was 66.8% and the microsomal CLint at 1 µM [27] was 171 µL/min/mg.
